“And” between values parts separate entries of the source, which are not always exact repeats. Identical values can stand only once. Numbers after ± are expanded uncertainties.
Assay: mn = molality of the nth substance listed, in mol/kg
Settings: 101 kPa, Liquid, m1 = 1

viscosity (303.15 K)	viscosity (308.15 K) [mPa·s]	viscosity (313.15 K) [mPa·s]	viscosity (318.15 K) [mPa·s]	viscosity (323.15 K) [mPa·s]	Compound
0.975 ± 0.025 mPa·s	0.8864 ± 0.023	0.805 ± 0.021	0.719 ± 0.019	0.655 ± 0.018	CC(=O)[O-].[K+] [potassium ethanoate] + O
1.095 ± 0.028 mPa·s	1.005 ± 0.026	0.9052 ± 0.024	0.801 ± 0.021	0.721 ± 0.019	CC(=O)[O-].[Na+] [sodium ethanoate] + O

Compound	viscosity (303.15 K)	viscosity (308.15 K) [mPa·s]	viscosity (313.15 K) [mPa·s]	viscosity (318.15 K) [mPa·s]	viscosity (323.15 K) [mPa·s]
CC(=O)[O-].CC(=O)[O-].[Ca+2] [calcium acetate] + O	1.545 ± 0.038 mPa·s and 1.563 ± 0.038 mPa·s	1.412 ± 0.035	1.265 ± 0.032	1.127 ± 0.029	0.999 ± 0.026

Source: the NIST ThermoML archive (doi:10.1007/s10765-011-1111-y)
